Literature values, collected in patent US7855190B2, “Methods of hormonal treatment utilizing contraceptive regimens with continuous estrogen administration” (Teva Women's Health, Inc., priority 2003, dated 2010).

Conditions: relative potency of estrogens

Row | SMILES | amount roughly equivalent to 30 μg of ethinyl estradiol
1 | C[C@]12CC[C@@H]3c4ccc(O)cc4CC[C@H]3[C@@H]1CC[C@@H]2O [17β-estradiol] | ~2,000 μg
2 | C#C[C@]1(O)CC[C@H]2[C@@H]3CCc4cc(OC)ccc4[C@H]3CC[C@@]21C [mestranol] | ~60 µg

Same assay, conditions: relative potency of progestins

Row | SMILES | amount equivalent to 0.050 mg of levonorgestrel
3 | C#CC1(O)CC[C@H]2[C@@H]3CCC4=CC(=O)CC[C@@H]4[C@H]3CC[C@@]21CC (mixture of isomers) [norgestrel] | about 0.100 mg
4 | C#C[C@]1(O)CC[C@H]2[C@@H]3CCC4=CC(=O)CC[C@@H]4[C@H]3C(=C)C[C@@]21CC [3-ketodesogestrel] | about 0.050 mg
5 | C#C[C@]1(O)CC[C@H]2[C@@H]3CCC4=CCCC[C@@H]4[C@H]3C(=C)C[C@@]21CC [desogestrel] | about 0.050 mg
6 | C#C[C@]1(O)C=C[C@H]2[C@@H]3CCC4=CC(=O)CC[C@@H]4[C@H]3CC[C@@]21CC [gestodene] | about 0.035 mg
7 | C#C[C@]1(OC(C)=O)CC[C@H]2[C@@H]3CCC4=CC(=O)CC[C@@H]4[C@H]3CC[C@@]21C [norethindrone acetate] | about 0.175 mg
